According to PubChem BioAssay AID1259407 (Chemical Carcinogenesis Research Information System (CCRIS), 2018):
Activity calls are given as the source filed them. No rule for the calls is given here.

Test system: CCRIS mutagenicity, Ames/micronucleus/aberration tests
Test: CCRIS mutagenicity studies
[1] = Test System: AMES SALMONELLA TYPHIMURIUM, Strain/Indicator: TA98, Metabolic Activation: NONE, Method: STANDARD PLATE
[2] = Test System: AMES SALMONELLA TYPHIMURIUM, Strain/Indicator: TA98, Metabolic Activation: RAT, LIVER, S-9, AROCLOR 1254, Method: STANDARD PLATE
[3] = Test System: AMES SALMONELLA TYPHIMURIUM, Strain/Indicator: TA100, Metabolic Activation: NONE, Method: STANDARD PLATE
[4] = Test System: AMES SALMONELLA TYPHIMURIUM, Strain/Indicator: TA100, Metabolic Activation: RAT, LIVER, S-9, AROCLOR 1254, Method: STANDARD PLATE
[5] = Test System: AMES SALMONELLA TYPHIMURIUM, Strain/Indicator: TA1535, Metabolic Activation: NONE, Method: STANDARD PLATE
[6] = Test System: AMES SALMONELLA TYPHIMURIUM, Strain/Indicator: TA1535, Metabolic Activation: RAT, LIVER, S-9, AROCLOR 1254, Method: STANDARD PLATE
[7] = Test System: AMES SALMONELLA TYPHIMURIUM, Strain/Indicator: TA1537, Metabolic Activation: NONE, Method: STANDARD PLATE
[8] = Test System: AMES SALMONELLA TYPHIMURIUM, Strain/Indicator: TA1537, Metabolic Activation: RAT, LIVER, S-9, AROCLOR 1254, Method: STANDARD PLATE

Compound | mutagenic call [1] | mutagenic call [2] | mutagenic call [3] | mutagenic call [4] | mutagenic call [5] | mutagenic call [6] | mutagenic call [7] | mutagenic call [8] | other results
Cc1cc(C)c(S(=O)(=O)O)cc1N=Nc1cc(S(=O)(=O)O)c2ccccc2c1O | inactive; negative | inactive; negative | inactive; negative | inactive; negative | inactive; negative | inactive; negative | inactive; negative | inactive; negative | mutagenic call (Test System: AMES SALMONELLA TYPHIMURIUM, Strain/Indicator: TA98, Metabolic Activation: HAMSTER, LIVER, S-9, AROCLOR 1254, Method: STANDARD PLATE): inactive; negative; mutagenic call (Test System: AMES SALMONELLA TYPHIMURIUM, Strain/Indicator: TA98, Metabolic Activation: RAT LIVER S-9, AROCLOR 1254, Method: STANDARD PLATE): inactive; negative; mutagenic call (Test System: AMES SALMONELLA TYPHIMURIUM, Strain/Indicator: TA100, Metabolic Activation: HAMSTER, LIVER, S-9, AROCLOR 1254, Method: STANDARD PLATE): inactive; negative; mutagenic call (Test System: AMES SALMONELLA TYPHIMURIUM, Strain/Indicator: TA100, Metabolic Activation: RAT LIVER S-9, AROCLOR 1254, Method: STANDARD PLATE): inactive; negative; mutagenic call (Test System: AMES SALMONELLA TYPHIMURIUM, Strain/Indicator: TA1535, Metabolic Activation: HAMSTER, LIVER, S-9, AROCLOR 1254, Method: STANDARD PLATE): inactive; negative; mutagenic call (Test System: AMES SALMONELLA TYPHIMURIUM, Strain/Indicator: TA1537, Metabolic Activation: HAMSTER, LIVER, S-9, AROCLOR 1254, Method: STANDARD PLATE): inactive; negative; mutagenic call (Test System: AMES SALMONELLA TYPHIMURIUM, Strain/Indicator: TA1538, Metabolic Activation: HAMSTER, LIVER, S-9, AROCLOR 1254 (2.5-20%), Method: PREINCUBATION): inactive; negative; mutagenic call (Test System: AMES SALMONELLA TYPHIMURIUM, Strain/Indicator: TA1538, Metabolic Activation: HAMSTER, LIVER, S-9, AROCLOR 1254, Method: STANDARD PLATE): inactive; negative; mutagenic call (Test System: AMES SALMONELLA TYPHIMURIUM, Strain/Indicator: TA1538, Metabolic Activation: NONE, Method: STANDARD PLATE): inactive; negative; mutagenic call (Test System: AMES SALMONELLA TYPHIMURIUM, Strain/Indicator: TA1538, Metabolic Activation: RAT, LIVER, S-9, AROCLOR 1254, Method: STANDARD PLATE): inactive; negative; mutagenic call (Test System: MOUSE LYMPHOMA, Strain/Indicator: L5178Y (TK+/TK-), Metabolic Activation: NONE, Method: SUSPENSION/PLATE): inactive; negative. reevaluation of results: negative; mutagenic call (Test System: MOUSE LYMPHOMA, Strain/Indicator: L5178Y (TK+/TK-), Metabolic Activation: RAT, LIVER, S-9, AROCLOR 1254, Method: SUSPENSION/PLATE): inactive; negative. reevaluation of results: negative
CC12CCC(=O)NC1=CCC1C2CCC2(C)C(OC(=O)CCCc3ccc(N(CCCl)CCCl)cc3)CCC12 (stereo not given) | inactive; negative | inactive; negative | active; positive | active; positive | active; positive | active; positive | inactive; negative | inactive; negative | mutagenic call (Test System: AMES SALMONELLA TYPHIMURIUM, Strain/Indicator: TA102, Metabolic Activation: NONE, Method: STANDARD PLATE): inactive; negative; mutagenic call (Test System: AMES SALMONELLA TYPHIMURIUM, Strain/Indicator: TA102, Metabolic Activation: RAT, LIVER, S-9, AROCLOR 1254, Method: STANDARD PLATE): inactive; negative
